Results: PMC3310325 (Bioconjugate Chemistry, 2012)
Read-outs that look alike come from different tables or passages of the source.

Legend:
[1] = tested on: HT1080 human fibrosarcoma xenografts; test: In vivo planar fluorescence imaging in HT1080 tumor-bearing mice; parameters: species or system human xenograft in male NCR nude mice
gelatinases = details: -PLGVR- sequence; cited from earlier work
MMP-1 = details: -PLGVR- sequence; cited from earlier work
MMP-3 = details: -PLGVR- sequence; cited from earlier work
MMP-7 [2] = details: -PLGVR- sequence; cited from earlier work
MMP-2 [3] = target: T1, MMP-2 (Homo sapiens, UniProt P08253); details: cited from earlier work
T1 sequence (P08253 110-660): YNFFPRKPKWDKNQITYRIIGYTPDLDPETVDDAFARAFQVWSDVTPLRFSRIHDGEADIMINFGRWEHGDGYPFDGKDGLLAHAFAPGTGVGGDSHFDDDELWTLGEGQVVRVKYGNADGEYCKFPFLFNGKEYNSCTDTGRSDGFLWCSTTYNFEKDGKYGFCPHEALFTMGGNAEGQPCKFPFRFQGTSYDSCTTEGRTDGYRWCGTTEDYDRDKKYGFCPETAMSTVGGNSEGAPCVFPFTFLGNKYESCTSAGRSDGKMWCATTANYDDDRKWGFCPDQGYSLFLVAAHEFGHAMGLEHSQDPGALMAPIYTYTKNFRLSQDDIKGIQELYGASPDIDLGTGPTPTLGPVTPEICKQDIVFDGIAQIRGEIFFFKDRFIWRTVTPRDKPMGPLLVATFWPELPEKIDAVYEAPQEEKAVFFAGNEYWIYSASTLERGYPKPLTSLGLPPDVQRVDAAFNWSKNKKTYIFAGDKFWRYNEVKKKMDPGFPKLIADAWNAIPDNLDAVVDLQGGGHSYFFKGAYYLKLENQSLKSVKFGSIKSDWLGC

MMP-9 = details: single-stranded peptide without the GPO triplets; cited from earlier work
[4] = previously determined; cited from earlier work
MMP-7 [5] = details: cited from earlier work
MMP-2 [6] = details: 450 kDa co-polymer conjugated to -Pro-Leu-Gly~Val-Arg-Gly-; cited from earlier work
MMP-2 [7] = target: T1, MMP-2; details: cited from earlier work; remark: listed apart in the source

-PLGVR- [MMPSense™ 680]
tumor contrast versus contralateral thigh ([1]; 24 h post-injection, MMPSense 680 2 nmol i.v., n=3): about two-fold | tumor-specific fluorescence enhancement relative to LS276-THP ([1]; MMPSense 680 2 nmol i.v. vs LS276-THP i.p.): slightly higher | tumor-specific fluorescence contrast over time ([1]; MMPSense 680 2 nmol i.v., n=3, 24 h): increased over time for 24 h | proteolysis by gelatinases (gelatinases): subject to proteolysis | proteolysis by MMP-1 (MMP-1): subject to proteolysis | proteolysis by MMP-3 (MMP-3): subject to proteolysis | proteolysis by MMP-7 (MMP-7 [2]): subject to proteolysis

GPPG~VVGEKGEQ
hydrolysis by MMP-2 (MMP-2 [3]; single-stranded peptide without the GPO triplets): hydrolyzed extremely slowly | hydrolysis by MMP-9 (MMP-9): hydrolyzed extremely slowly

[(GPO)5GPK((7-methoxycoumarin-4-yl)acetyl)GPPG~VVGEK(2,4-dinitrophenyl)GEQ(GPO)5]3 [fluorogenic THP]
Km (MMP-2 [3]; MMP-2 hydrolysis): 4.4 µM | kcat (MMP-2 [3]; MMP-2 hydrolysis): 0.062 s⁻¹ | kcat/KM (MMP-2 [3]; MMP-2 hydrolysis): 14,000 s^−1M^−1 | midpoint transition temperature TM [4]: 45 °C

GVPLSLTMGC
level of quenching (MMP-7 [5]; heterologous donor and acceptor pair of near infrared dyes on the N- and C-terminus): 85% | fluorescence increase after digestion with MMP-7 (MMP-7 [5]; heterologous donor/acceptor NIR dyes on N- and C-terminus): ~7 fold

CNC(=O)[C@H](Cc1c[nH]c2ccccc12)NC(=O)[C@@H](CC(=O)NO)CC(C)C [Ilomastat]
time course of tumor fluorescence intensity with inhibitor ([1]; mice treated with Ilomastat 1 mg/kg i.p., LS276-THP i.p.): a steady increase in fluorescence intensity occurred, indicating incomplete inhibition of tumor-associated MMP-2/MMP-9 activity

-Pro-Leu-Gly~Val-Arg-Gly- [poly-lysine-PEG co-polymer]
in vivo visualization of MMP-2 activity (MMP-2 [6]): MMP-2 activity in mouse models was visualized

-Pro-Leu-Gly~Val-Arg-Gly-
Km (MMP-2 [7]): 290 µM | kcat (MMP-2 [7]): 4.1 s⁻¹ | kcat/KM (MMP-2 [7]): 14000 M⁻¹ s⁻¹
